# Reference: patent publication US20250205268A1, “TREATMENT OF VIRUSES WITH ANTIVIRAL NUCLEOSIDES” (priority 2021, published 2025)
# Read-outs that look alike come from different tables or passages of the source.
# How the values were obtained:
# [1] = Phase 1 study
# [2] = format: in vivo, human; settings: adults; age, sex, body size, food, mild-to-moderate renal or mild hepatic impairment
# Protocol: A population pharmacokinetic (popPK) analysis for Compound A exposure was conducted using 4202 NHC plasma concentrations collected in 1207 individuals from a phase 1 study in healthy participants, a phase 2a study in non-hospitalized participants with COVID-19, a Phase 2 study in hospitalized participants with COVID-19, and a Phase 2/3 study in non-hospitalized participants with COVID-19. All studies were randomized, double-blind, placebo-controlled studies of safety, tolerability, and PK of Compound A after oral administration.
# [3] = test system: infectious SARS-CoV-2 virus; format: in vivo; settings: 200 mg twice daily 5 days; Day 1
# [4] = Part 2 interim, safety population
structure (smiles),measurement,setting,value
"CC(C)C(=O)OC[C@H]1O[C@@H](n2ccc(NO)nc2=O)[C@H](O)[C@@H]1O [Compound A, {(2R,3S,4R,5R)-3,4-dihydroxy-5-[4-(hydroxyimino)-2-oxo-3,4-dihydropyrimidin-1 (2H)-yl]oxolan-2-yl}methyl 2-methylpropanoate]",hematological laboratory tests,[1],no clinically significant abnormalities
same,liver parameters,[1]; any dose,No clinically significant abnormalities in liver parameters
same,serum lipase,"[1]; at least 3 days after last dose, not dose related",Transient elevations of serum lipase
same,tolerability,SARS-CoV-2; 5-day course up to 800 mg twice daily,well tolerated
same,Median time to sustained recovery,"SARS-CoV-2; all arms, hospitalized",9 days
same,day 29 recovery rates,"SARS-CoV-2; all arms, hospitalized",81.5%-85.2%
same,hematologic toxicity based on prespecified adverse events,SARS-CoV-2; all doses,no evidence of hematologic toxicity
same,clinical benefit,SARS-CoV-2; hospitalized patients with COVID-19,clinical benefit was not observed
same,"participants with undetectable SARS-CoV-2 RNA at day 10, more than placebo",SARS-CoV-2; participants with ≤5 days since sign/symptom onset,14.3%-36.4%
same,AE: COVID-19 pneumonia,Part 2 interim,4.9%
same,AE: bacterial pneumonia,Part 2 interim,2.1%
same,AE: worsening COVID-19,Part 2 interim,8.0%
same,tolerability,Part 2 interim analysis,well-tolerated
same,Died,[4],(0.0) %
same,Estimated difference vs placebo: Died,[4],−2.6%
same,adverse event: Covid-19 pneumonia,final,6.3%
same,adverse event: bacterial pneumonia,final,2.0%
same,adverse event: worsening of Covid-19,final,7.9%
same,Death,"final, safety population",2 (0.3) number (percent)
same,Estimated Difference (95% CI) vs placebo: Death,"final, safety population",−1.4 (−2.7 to −0.5) percentage points
same,AE: diarrhea,"human, in vivo",3.9%
same,AE: nausea,"human, in vivo",2.8%
same,AE: respiratory failure,"human, in vivo",1.0%
same,At least 1 serious AE,"human, in vivo",(7.3) %
same,At least 1 serious drug-related AE,"human, in vivo",(0.0) %
same,Discontinued the assigned regimen because of a serious adverse event,"human, in vivo",5 (0.7) number (percent)
same,Discontinued the assigned regimen because of a serious adverse event related to the assigned regimen,"human, in vivo",0 number (percent)
same,Discontinued the assigned regimen because of an adverse event,"human, in vivo",10 (1.4) number (percent)
same,Discontinued the assigned regimen because of an adverse event related to the assigned regimen,"human, in vivo",4 (0.6) number (percent)
same,Discontinued treatment due to a drug-related AE,"human, in vivo",(0.8) %
same,Discontinued treatment due to a serious AE,"human, in vivo",(0.3) %
same,Discontinued treatment due to a serious drug-related AE,"human, in vivo",(0.0) %
same,Discontinued treatment due to an AE,"human, in vivo",(1.3) %
same,Estimated Difference (95% CI) vs placebo: discontinued because of a serious adverse event,"human, in vivo",−1.2 (−2.5 to 0.0) percentage points
same,Estimated Difference (95% CI) vs placebo: discontinued because of a serious adverse event related to the assigned regimen,"human, in vivo",0.0 (−0.5 to 0.5) percentage points
same,Estimated Difference (95% CI) vs placebo: discontinued because of an adverse event,"human, in vivo",−1.4 (−3.1 to 0.1) percentage points
same,Estimated Difference (95% CI) vs placebo: discontinued because of an adverse event related to the assigned regimen,"human, in vivo",0.1 (−0.8 to 1.1) percentage points
same,Estimated Difference (95% CI) vs placebo: ≥1 Adverse event,"human, in vivo",−2.5 (−7.4 to 2.3) percentage points
same,Estimated Difference (95% CI) vs placebo: ≥1 Adverse event related to the assigned regimen,"human, in vivo",−0.4 (−3.3 to 2.5) percentage points
same,Estimated Difference (95% CI) vs placebo: ≥1 Serious adverse event,"human, in vivo",−2.7 (−5.6 to 0.2) percentage points
same,Estimated Difference (95% CI) vs placebo: ≥1 Serious adverse event related to the assigned regimen,"human, in vivo",−0.1 (−0.8 to 0.4) percentage points
same,Estimated difference vs placebo: At least 1 AE,"human, in vivo",−4.6%
same,Estimated difference vs placebo: At least 1 drug-related AE,"human, in vivo",1.4%
same,Estimated difference vs placebo: At least 1 serious AE,"human, in vivo",−6.7%
same,Estimated difference vs placebo: At least 1 serious drug-related AE,"human, in vivo",0.0%
same,Estimated difference vs placebo: Discontinued treatment due to a drug-related AE,"human, in vivo",−0.0%
same,Estimated difference vs placebo: Discontinued treatment due to a serious AE,"human, in vivo",−2.1%
same,Estimated difference vs placebo: Discontinued treatment due to a serious drug-related AE,"human, in vivo",0.0%
same,Estimated difference vs placebo: Discontinued treatment due to an AE,"human, in vivo",−2.1%
same,adverse event related to the trial regimen: diarrhea,"human, in vivo",1.7%
same,adverse event related to the trial regimen: dizziness,"human, in vivo",1.0%
same,adverse event related to the trial regimen: nausea,"human, in vivo",1.4%
same,adverse event: diarrhea,"human, in vivo",2.3%
same,drug-related AE: diarrhea,"human, in vivo",3.1%
same,drug-related AE: nausea,"human, in vivo",2.3%
same,participants with adverse events considered related to the trial regimen,"human, in vivo",8.0%
same,≥1 Adverse event,"human, in vivo",216 (30.4) number (percent)
same,≥1 Adverse event related to the assigned regimen,"human, in vivo",57 (8.0) number (percent)
same,≥1 Serious adverse event,"human, in vivo",49 (6.9) number (percent)
same,≥1 Serious adverse event related to the assigned regimen,"human, in vivo",0 number (percent)
same,hematological laboratory tests,in vivo,no clinically significant abnormalities
same,liver parameters,in vivo,No clinically significant abnormalities in liver parameters
same,"participants meeting prespecified criteria for platelets <50,000/μL or potential drug-induced liver injury",in vivo,No participants in the Compound A group met prespecified criteria
same,"participants meeting prespecified criteria for postbaseline platelet count below 50,000 per microliter",in vivo,One participant
same,need for dose adjustment,[2],without dose adjustment
same,Percentage of participants positive for infectious SARS-CoV-2 virus,[3],(50.0) %
